Assays:
blackgrass = experiment: Test B pre/postemergence blackgrass; format: in vivo, Alopecurus myosuroides
In short: (§1)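 Herbicidal effect was estimated by eye on a ten-point control scale after plants spent twelve to sixteen days in a greenhouse following soil or foliar treatment. Foliar sprays targeted plants at one to four leaves; all doses were formulated in a non-phytotoxic solvent with surfactant.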

smallflower flatsedge = experiment: Test B flood test smallflower flatsedge; format: in vivo, Cyperus difformis
In short: (§2)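 Each value is a visual injury score relative to controls, with 10 meaning complete control and 0 no effect. Evaluation took place twelve to sixteen days after the 2-leaf-stage plants were treated and kept in the greenhouse.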

duck salad = experiment: Test B flood test duck salad; format: in vivo, Heteranthera limosa
In short: as §2

wheat = experiment: Test B pre/postemergence wheat; format: in vivo, Triticum aestivum
In short: as §1

rice = experiment: Test B flood test rice; format: in vivo, Oryza sativa
In short: as §2

purple nutsedge = experiment: Test B pre/postemergence purple nutsedge; format: in vivo, Cyperus rotundus
In short: as §1

bedstraw = experiment: Test B pre/postemergence bedstraw; format: in vivo, Galium aparine
In short: as §1

velvetleaf = experiment: Test B pre/postemergence velvetleaf; format: in vivo, Abutilon theophrasti
In short: as §1

soybean = experiment: Test B pre/postemergence soybean; format: in vivo, Glycine max
In short: as §1

surinam grass = experiment: Test B pre/postemergence surinam grass; format: in vivo, Brachiaria decumbens
In short: as §1

rape = experiment: Test B pre/postemergence rape; format: in vivo, Brassica napus
In short: as §1

corn = experiment: Test B pre/postemergence corn; format: in vivo, Zea mays
In short: as §1

crabgrass = experiment: Test B pre/postemergence crabgrass; format: in vivo, Digitaria sanguinalis
In short: as §1

giant foxtail = experiment: Test B pre/postemergence giant foxtail; format: in vivo, Setaria faberii
In short: as §1

wild oat = experiment: Test B pre/postemergence wild oat; format: in vivo, Avena fatua
In short: as §1

morningglory = experiment: Test B pre/postemergence morningglory; format: in vivo, Ipomoea hederacea
In short: as §1

[1] = Preemergence, Rate 62 g/ha, scale of 0 to 10 where 0 is no effect and 10 is complete control
[2] = Preemergence, Rate 250 g/ha, scale of 0 to 10 where 0 is no effect and 10 is complete control
[3] = Preemergence, Rate 500 g/ha, scale of 0 to 10 where 0 is no effect and 10 is complete control
[4] = Rate 62 g/ha, Postemergence, scale of 0 to 10 where 0 is no effect and 10 is complete control
[5] = Rate 125 g/ha, Postemergence, scale 0 to 10
[6] = Rate 125 g/ha, Preemergence, scale of 0 to 10 where 0 is no effect and 10 is complete control
[7] = Rate 500 g/ha, Postemergence, scale 0 to 10, 0 no effect, 10 complete control
[8] = Rate 62 g/ha, headed Pre-emergence (flood test species), scale 0 to 10 (0 no effect, 10 complete control)
[9] = Rate 125 g/ha, Pre-emergence, flood test species, scale 0 to 10 where 0 is no effect and 10 is complete control
[10] = Rate 250 g/ha, Pre-emergence, flood-test species, scale 0 to 10, 0 is no effect, 10 is complete control
[11] = Rate 500 g/ha, Pre-emergence, flood test species, scale 0 to 10 (0 no effect, 10 complete control)

COc1cc(C)cc(C)c1-n1c(=O)on(C(=O)N(c2ccc(F)cc2)C(C)C)c1=O [Compound 222]
Blackgrass plant response rating (blackgrass; [1]): 0
Blackgrass plant response rating (blackgrass; [2]): 0
Plant response rating, Blackgrass (blackgrass; [3]): 0
Blackgrass plant response rating (blackgrass; [4]): 0
Blackgrass plant response rating (blackgrass; [5]): 0
Blackgrass plant response rating (blackgrass; [6]): 0
Plant response rating (0 to 10; 0 is no effect, 10 is complete control), Blackgrass (blackgrass; Rate 250 g/ha, Postemergence): 3
Blackgrass plant response rating (blackgrass; [7]): 4
S. Flatsedge plant response rating (smallflower flatsedge; [8]): 0
S. Flatsedge plant response rating (smallflower flatsedge; [9]): 0
S. Flatsedge plant response rating (smallflower flatsedge; [10]): 0
S. Flatsedge plant response rating (smallflower flatsedge; [11]): 0
Ducksalad plant response rating (duck salad; [8]): 0
Ducksalad plant response rating (duck salad; [9]): 0
Ducksalad plant response rating (duck salad; [10]): 0
Ducksalad plant response rating (duck salad; [11]): 0
Wheat plant response rating (wheat; [1]): 0
Wheat plant response rating (wheat; [2]): 0
Plant response rating, Wheat (wheat; [3]): 0
Wheat plant response rating (wheat; [4]): 0
Wheat plant response rating (wheat; [5]): 0
Wheat plant response rating (wheat; [6]): 0
Plant response rating (0 to 10; 0 is no effect, 10 is complete control), Wheat (wheat; Rate 250 g/ha, Postemergence): 0
Wheat plant response rating (wheat; [7]): 0
Rice plant response rating (rice; [8]): 0
Rice plant response rating (rice; [9]): 0
Rice plant response rating (rice; [10]): 0
Rice plant response rating (rice; [11]): 0
Nutsedge plant response rating (purple nutsedge; [2]): 0
Nutsedge plant response rating (purple nutsedge; [4]): 0
Nutsedge plant response rating (purple nutsedge; [5]): 0
Nutsedge plant response rating (purple nutsedge; [6]): 0
Plant response rating (0 to 10; 0 is no effect, 10 is complete control), Nutsedge (purple nutsedge; Rate 250 g/ha, Postemergence): 0
Bedstraw plant response rating (bedstraw; [1]): 0
Bedstraw plant response rating (bedstraw; [2]): 0
Plant response rating, Bedstraw (bedstraw; [3]): 0
Bedstraw plant response rating (bedstraw; [4]): 3
Bedstraw plant response rating (bedstraw; [5]): 3
Bedstraw plant response rating (bedstraw; [6]): 0
Plant response rating (0 to 10; 0 is no effect, 10 is complete control), Bedstraw (bedstraw; Rate 250 g/ha, Postemergence): 4
Bedstraw plant response rating (bedstraw; [7]): 5
Velvetleaf plant response rating (velvetleaf; [1]): 0
Velvetleaf plant response rating (velvetleaf; [2]): 0
Plant response rating, Velvetleaf (velvetleaf; [3]): 3
Velvetleaf plant response rating (velvetleaf; [4]): 0
Velvetleaf plant response rating (velvetleaf; [5]): 0
Velvetleaf plant response rating (velvetleaf; [6]): 0
Plant response rating (0 to 10; 0 is no effect, 10 is complete control), Velvetleaf (velvetleaf; Rate 250 g/ha, Postemergence): 2
Velvetleaf plant response rating (velvetleaf; [7]): 3
Soybean plant response rating (soybean; [1]): 0
Soybean plant response rating (soybean; [2]): 0
Plant response rating, Soybean (soybean; [3]): 0
Soybean plant response rating (soybean; [4]): 2
Soybean plant response rating (soybean; [5]): 3
Soybean plant response rating (soybean; [6]): 0
Plant response rating (0 to 10; 0 is no effect, 10 is complete control), Soybean (soybean; Rate 250 g/ha, Postemergence): 3
Soybean plant response rating (soybean; [7]): 2
B. signalgrass plant response rating (surinam grass; [1]): 0
B. signalgrass plant response rating (surinam grass; Preemergence, Rate 250 g/ha, scale 0 to 10, 0 is no effect, 10 is complete control): 0
Plant response rating, B. signalgrass (surinam grass; [3]): 0
B. signalgrass plant response rating (surinam grass; [4]): 0
B. signalgrass plant response rating (surinam grass; Rate 125 g/ha, Postemergence, scale 0 (no effect) to 10 (complete control)): 0
B. signalgrass plant response rating (surinam grass; [6]): 0
Plant response rating (0 to 10; 0 is no effect, 10 is complete control), B. signalgrass (surinam grass; Rate 250 g/ha, Postemergence): 0
B. signalgrass plant response rating (surinam grass; [7]): 1
Rape plant response rating (rape; [1]): 0
Rape plant response rating (rape; [2]): 0
Plant response rating, Rape (rape; [3]): 0
Rape plant response rating (rape; [4]): 0
Rape plant response rating (rape; [5]): 0
Rape plant response rating (rape; [6]): 0
Plant response rating (0 to 10; 0 is no effect, 10 is complete control), Rape (rape; Rate 250 g/ha, Postemergence): 0
Rape plant response rating (rape; [7]): 0
Corn plant response rating (corn; [1]): 0
Corn plant response rating (corn; [2]): 0
Plant response rating, Corn (corn; [3]): 0
Corn plant response rating (corn; [4]): 0
Corn plant response rating (corn; [5]): 0
Corn plant response rating (corn; [6]): 0
Plant response rating (0 to 10; 0 is no effect, 10 is complete control), Corn (corn; Rate 250 g/ha, Postemergence): 0
Corn plant response rating (corn; [7]): 0
Crabgrass plant response rating (crabgrass; [1]): 0
Crabgrass plant response rating (crabgrass; [2]): 8
Plant response rating, Crabgrass (crabgrass; [3]): 9
Crabgrass plant response rating (crabgrass; [4]): 0
Crabgrass plant response rating (crabgrass; [5]): 0
Crabgrass plant response rating (crabgrass; [6]): 6
Plant response rating (0 to 10; 0 is no effect, 10 is complete control), Crabgrass (crabgrass; Rate 250 g/ha, Postemergence): 0
Crabgrass plant response rating (crabgrass; [7]): 2
Giant foxtail plant response rating (giant foxtail; [1]): 0
Giant foxtail plant response rating (giant foxtail; [2]): 7
Plant response rating, Giant foxtail (giant foxtail; [3]): 9
Giant foxtail plant response rating (giant foxtail; [4]): 0
Giant foxtail plant response rating (giant foxtail; [5]): 0
Giant foxtail plant response rating (giant foxtail; [6]): 5
Plant response rating (0 to 10; 0 is no effect, 10 is complete control), Giant foxtail (giant foxtail; Rate 250 g/ha, Postemergence): 0
Giant foxtail plant response rating (giant foxtail; [7]): 1
Wild oats plant response rating (wild oat; [1]): 0
Wild oats plant response rating (wild oat; [2]): 0
Plant response rating, Wild oats (wild oat; [3]): 1
Wild oats plant response rating (wild oat; [4]): 0
Wild oats plant response rating (wild oat; [5]): 0
Wild oats plant response rating (wild oat; [6]): 0
Plant response rating (0 to 10; 0 is no effect, 10 is complete control), Wild oats (wild oat; Rate 250 g/ha, Postemergence): 0
Wild oats plant response rating (wild oat; [7]): 0
Morningglory plant response rating (morningglory; [1]): 0
Morningglory plant response rating (morningglory; [2]): 0
Plant response rating, Morningglory (morningglory; [3]): 0
Morningglory plant response rating (morningglory; [4]): 1
Morningglory plant response rating (morningglory; [5]): 1
Morningglory plant response rating (morningglory; [6]): 0
Plant response rating (0 to 10; 0 is no effect, 10 is complete control), Morningglory (morningglory; Rate 250 g/ha, Postemergence): 3
Morningglory plant response rating (morningglory; [7]): 3
